Results taken from article PMC2654408 (PLoS ONE, 2009).
Several values for one entry are separate records, joined by “and”; a condition that tells them apart may be missing. Equal entries are not always repeated. Where two headings read alike, the source gives them in different places. Where no end group is shown, it is not given here.

Columns and labels:
α7-nAChR [1] = target: T1, α7-nAChR (Homo sapiens, UniProt P36544); experiment: biochemical; format: binding; conditions: for [125I]α-BTX binding compared with control maximum specific binding: Mean±SEM
T1 construct: host or cells: GH4-hα7 (rat pituitary tumor GH4 cells stably transfected with human α7-nAChR)
Method: (§1) For membrane binding experiments, confluent cells were scraped off 75 cm^2 culture plates into ice-cold lysis buffer (20 mM Tris-HCl, pH 7.0, 5 mM ethylenediaminetetraacetic acid (EDTA), and 1× protease inhibitor cocktail (Roche Diagnostics, Ltd.,West Sussex, UK). After pelleting by centrifugation for 10 min at 13,000 rpm, cells were resuspended in 7 ml ice-cold lysis buffer, lysed by Dounce homogenization, and then centrifuged at 1000×g for 10 min. Supernatant was removed and the extraction process repeated. The supernatants were combined and centrifuged at 50,000 rpm (70 Ti rotor) for 30 min (Beckman Ultracentrifuge). All centrifugations were carried out at 4°C. The pelleted membranes were resuspended in binding buffer (50 mM Tris-HCl, 120 mM NaCl, 5 mM KCl, 1 mM MgCl2, 2.5 mM CaCl2, pH 7.0) and protein concentration determined using the DC Protein Assay kit (Bio-Rad Laboratories, Ltd., Hemel Hempstead, UK). Binding assays were assembled on ice in borosilicate glass test tubes with 50–100 µg membrane protein in binding buffer in a final volume of 250 µl. Binding reactions were incubated at 4°C overnight, and then terminated by rapid vacuum filtration using a Brandel Cell Harvester onto Whatman GF/B glass fibre filters pre-soaked in 0.4% polyethylenimine. Saturation binding experiments were performed with [^125I]α-BTX concentrations ranging from 0.03–100 nM. Displacement binding experiments were performed with a constant [^125I]α-BTX concentration of 2.0 nM. Non-specific binding was determined with 10 µM MLA.
(§2) Ligand binding data were analyzed using GraphPad Prism 4.03 (GraphPad Software, Inc.) Saturation binding data were fitted by nonlinear regression with a hyperbolic function for a one-binding site model. Displacement binding data were fitted by nonlinear regression for a one-site binding competition model, unless otherwise noted. RT-PCR band density data was analysed using Student's t-test for comparison of individual means with control values and by one-way ANOVA followed by Tukey's multiple comparison test for comparison of test groups and effect of MLA inhibition effects.

α7-nAChR mRNA expression = experiment: RT-PCR analysis of α7-nAChR mRNA expression in GH4-hα7 cells; format: cell-based, human
Method: To assess the effects of T-AChE C-terminal peptides on α7-nAChR mRNA expression, total cellular RNA was isolated and analysed for gene-specific expression levels using reverse transcriptase PCR. Specifics of primer design and sequences used in RT-PCR experiments are described in the methods. […] Expression of the housekeeping gene glyceraldehyde 3-phosphate dehydrogenase (GAPDH) was used as a standard for comparative analysis. RT-PCR analysis was performed in control GH4-hα7 cells and those exposed to AChE peptides at concentrations ranging from 1 nM to 1 µM for 24 hr (Fig. 5A). […] A similar high level of α7-nAChR expression was achieved after treatment with only 1 nM T30.
as §2, with “Displacement binding data were fitted by nonlinear regression for a one-site binding competition model, unless otherwise noted.” left out
Primers for RNA analysis were designed using the Primer3 program and analysed for structural anomalies and dimer formation using NetPrimer software (Premier Biosoft International, Palo Alto, USA). […]

[2] = target: human alpha-7 nicotinic acetylcholine receptor (human) (UniProt P36544)
[3] = target: human alpha-7 nicotinic acetylcholine receptor (human) (UniProt P36544); experiment: radioligand binding
α7-nAChR [4] = target: T1, α7-nAChR; experiment: Saturation binding on cell membranes after chronic 24 hr peptide treatment of GH4-hα7 cells; format: cell-based; conditions: 24 hr treatment with 100 nM peptide; read-out: Kd±SEM, receptor affinity for α-BTX
Method: as §1
as §2, with “Displacement binding data were fitted by nonlinear regression for a one-site binding competition model, unless otherwise noted.” left out

α7-nAChR [5] = target: T1, α7-nAChR; experiment: Acute live cell [125I]α-BTX binding in GH4-hα7 cells; conditions: for efficacy in competition with [125I]α-BTX for receptor binding sites: 10 µM peptide
Method: Initial experiments were performed to characterize the binding parameters of the human α7-nAChR heterologously expressed in the rat GH4-hα7 cell line using a live-cell binding method. Saturation binding was carried out with [^125I]alpha-bungarotoxin ([^125I]α-BTX) concentrations ranging from 0.03 nM to 100 nM. Non-specific binding was determined in the presence of 10 µM methyllycaconitine (MLA).
For live cell binding experiments, cells were seeded into 6-well plates at a density of 1×10^5 cells/well and allowed to recover for 24–48 hours before experimentation. Cells were treated with indicated peptides or α7-nAChR ligands for 30 min at 37°C in cell medium containing 1% FBS. Then [^125I]α-bungarotoxin ([^125I]α-BTX; 150 Ci/mmol) was added and cells were incubated at 37°C for a further 1.5 hr. Cell layers were washed 3× with 2 ml serum-free DMEM, then 0.5 ml 1 M NaOH was added to each well to lyse cells. Cell lysates were transferred to 5 ml scintillation fluid and radioactivity was determined using a Beckman LS6000IC scintillation counter.
as §2

[6] = target: T2, human alpha-7 nicotinic acetylcholine receptor (human, UniProt P36544 23-502); experiment: radioligand binding; conditions: one partner purified
T2 construct: human alpha-7 nicotinic acetylcholine receptor, heterologously expressed in the rat GH4-hα7 cell line; Used on live cells and as purified membranes of the same cell line; also called α7-nAChR; CHRNA7; source: on live cells and in purified cell membranes

[7] = target: T2, human alpha-7 nicotinic acetylcholine …; experiment: radioligand binding; conditions: one partner purified; remark: listed apart in the source
[8] = live cells, [125I]α-BTX displacement, read-out: Ki, high affinity site

T1 sequence (P36544 23-502): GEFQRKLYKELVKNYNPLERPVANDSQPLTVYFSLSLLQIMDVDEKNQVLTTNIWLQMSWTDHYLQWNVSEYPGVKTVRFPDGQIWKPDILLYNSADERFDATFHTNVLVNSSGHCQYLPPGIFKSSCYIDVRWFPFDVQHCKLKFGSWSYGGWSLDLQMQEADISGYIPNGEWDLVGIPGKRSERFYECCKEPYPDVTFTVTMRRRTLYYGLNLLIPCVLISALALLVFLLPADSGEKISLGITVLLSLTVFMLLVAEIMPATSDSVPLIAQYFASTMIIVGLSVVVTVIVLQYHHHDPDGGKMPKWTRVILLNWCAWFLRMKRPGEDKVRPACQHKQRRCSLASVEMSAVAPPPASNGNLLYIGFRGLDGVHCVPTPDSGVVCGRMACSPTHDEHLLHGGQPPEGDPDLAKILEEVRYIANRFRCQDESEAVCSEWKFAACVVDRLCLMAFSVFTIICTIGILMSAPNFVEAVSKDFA
T2 sequence (P36544 23-502): as above
Chain of human alpha-7 nicotinic acetylcholine receptor (human) (P36544 23-502): as above

CC(=O)OCC[N+](C)(C)C [ACh, acetylcholine]
decrease in specific binding efficacy in the presence of T30 compared with ligand alone (α7-nAChR [1]; membranes, ligand at its EC50, varying concentrations of T30): 18%

C[N+](C)(C)CCO [Choline, choline]
decrease in specific binding efficacy in the presence of T30 compared with ligand alone (α7-nAChR [1]): 36%
IC50 (α7-nAChR [1]; IC50±SEM): 123000 nM and 126000 nM and 225000 nM and 357000 nM and 737000 nM
Ki (α7-nAChR [1]; Ki±SEM): 85900 nM and 88900 nM and 157000 nM and 250000 nM and 515000 nM

CCN1C[C@]2(COC(=O)c3ccccc3N3C(=O)C[C@H](C)C3=O)CC[C@H](OC)[C@@]34[C@@H]5C[C@H]6[C@H](OC)[C@@H]5[C@](O)(C[C@@H]6OC)[C@@](O)([C@@H](OC)[C@H]23)[C@@H]14 [MLA, methyllycaconitine]
α7-nAChR mRNA expression, relative band density (α7-nAChR mRNA expression): 1.58±0.12
decrease in specific binding efficacy in the presence of T30 compared with ligand alone (α7-nAChR [1]): 24%
IC50 (α7-nAChR [1]; IC50): 15.5 nM and 9.5 nM

AChE C-terminal peptide T14
α7-nAChR mRNA expression by RT-PCR (relative band density against GAPDH) in GH4-hα7 cells after 24 hr with 1 nM to 1 µM T14 (relative band density) [2]: 2.72

AChE C-terminal peptide T30
Ki, high affinity site [3]: 0.0168 nM
Ki, second, lower affinity site [3]: 47.1 nM
α7-nAChR mRNA expression by RT-PCR (relative band density against GAPDH) in GH4-hα7 cells after 24 hr with 1 nM to 1 µM T30 (relative band density) [2]: 2.98

AEFHRWSSYMVHWK [T14]
Kd (α7-nAChR [4]): 9.06 ± 0.93 nM
[125I]α-BTX binding compared with control maximum specific binding (α7-nAChR [1]; membranes, 1 µM peptide): 90.11±3.5%
[125I]α-BTX binding compared with control maximum specific binding (α7-nAChR [1]; membranes, 10 µM peptide): 87.91±1.9%
efficacy in competition with [125I]α-BTX for receptor binding sites (α7-nAChR [5]; live cells): approximately 40%
Ki (α7-nAChR [5]; [8]): 0.653 ± 0.0126 nM

KAEFHRWSSYMVHWKNQFDHYSKQERCSDL [T30]
Kd (α7-nAChR [4]): 12 ± 1.39 nM
[125I]α-BTX binding compared with control maximum specific binding (α7-nAChR [1]; membranes, 1 µM peptide): 110.9±3.6%
[125I]α-BTX binding compared with control maximum specific binding (α7-nAChR [1]; membranes, 10 µM peptide): 117.3±4.9%
efficacy in competition with [125I]α-BTX for receptor binding sites (α7-nAChR [5]; live cells): 70%
Ki (α7-nAChR [5]; [8]): 0.0168 ± 0.0018 nM
Ki (α7-nAChR [5]; live cells, two-site competition model, read-out: Ki, second lower affinity site): 47.1 ± 2.8 nM

NQFDHYSKQERCSDL [T15]
Kd (α7-nAChR [4]): 4.91 ± 0.53 nM

[^125I]alpha-bungarotoxin [[^125I]α-BTX]
Bmax (α7-nAChR [5]): 965.8±28.9 fmol/mg protein
Kd (α7-nAChR [5]): 4.68 ± 0.61 nM

B1: T-AChE: full-length tailed isoform of acetylcholinesterase (protein)
chain: EGREDAELLVTVRGGRLRGIRLKTPGGPVSAFLGIPFAEPPMGPRRFLPPEPKQPWSGVVDATTFQSVCYQYVDTLYPGFEGTEMWNPNRELSEDCLYLNVWTPYPRPTSPTPVLVWIYGGGFYSGASSLDVYDGRFLVQAERTVLVSMNYRVGAFGFLALPGSREAPGNVGLLDQRLALQWVQENVAAFGGDPTSVTLFGESAGAASVGMHLLSPPSRGLFHRAVLQSGAPNGPWATVGMGEARRRATQLAHLVGCPPGGTGGNDTELVACLRTRPAQVLVNHEWHVLPQESVFRFSFVPVVDGDFLSDTPEALINAGDFHGLQVLVGVVKDEGSYFLVYGAPGFSKDNESLISRAEFLAGVRVGVPQVSDLAAEAVVLHYTDWLHPEDPARLREALSDVVGDHNVVCPVAQLAGRLAAQGARVYAYVFEHRASTLSWPLWMGVPHGYEIEFIFGIPLDPSRNYTAEEKIFAQRLMRYWANFARTGDPNEPRDPKAPQWPPYTAGAQQYVSLDLRPLEVRRGLRAQACAFWNRFLPKLLSATDTLDEAERQWKAEFHRWSSYMVHWKNQFDHYSKQDRCSDL
change in α7-nAChR mRNA expression (α7-nAChR mRNA expression; 10 nM protein, 24 hr): neither the full length T-AChE molecule (p = 0.3419), nor the truncated T548 (p = 0.1778), effected a significant change
effect on [125I]α-BTX binding to the α7-nAChR (α7-nAChR [5]; live cells, controls (Fig. 2D)): neither full-length T-AChE, nor truncated T548, had an effect

B2: [125I]alpha-bungarotoxin (ligand)
chain: IVCHTTATSPISAVTCPPGENLCYRKMWCDAFCSSRGKVVELGCAATCPSKKPYEEVTCCSTDKCNPHPKQRPG
Kd [6]: 4.68 nM
Kd [7]: 4.66 nM and 9.06 nM and 12 nM and 4.91 nM
